The results in this text go back to the supplement of paper PMC11923942.

Data set [1] can be described thus: GC retention time (DB-5MS, GC-APCI); higher = later elution. The protocol:
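Standards of hydrophobic organic contaminants were analysed by GC-APCI (positive mode, dry or wet source conditions) coupled to cyclic ion mobility-QTOF MS. CCS was measured for the base ion (sometimes a fragment ion) in N2 drift gas (one-pass mode, calibrated with a Waters 22-compound mix). 5 mL/min).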

Data set [2] in a line: collision cross section (N2, base ion); higher = larger ion cross section. The protocol:
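Standards of hydrophobic organic contaminants were analysed by GC-APCI (positive mode, dry or wet source conditions) coupled to cyclic ion mobility-QTOF MS. CCS was measured for the base ion (sometimes a fragment ion) in N2 drift gas (one-pass mode, calibrated with a Waters 22-compound mix).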

Each structure is given as a SMILES string.

`Brc1cc(Br)c(Oc2c(Br)cc(Br)c(Br)c2Br)cc1Br` [PBDE 183] (APCI source condition: Dry, base ion: M+.) gave a GC retention time in data set [1] of 28.2 min. The compound further yielded a collision cross section in data set [2] of 184.97 Å².
In data set [1], `Brc1cc(Br)c(Oc2c(Br)cc(Br)c(Br)c2Br)c(Br)c1` [PBDE 184] (APCI source condition: Dry, base ion: M+.) yielded a GC retention time of 27.8 min. Also, the collision cross section in data set [2] was determined as 181.4 Å².
The corresponding values for `Brc1ccc(Br)c(Oc2c(Br)c(Br)c(Br)c(Br)c2Br)c1` [PBDE 185] (APCI source condition: Dry, base ion: M+.) are 28.6 min and 182.95 Å².
The corresponding values for `Brc1cc(Oc2c(Br)cc(Br)c(Br)c2Br)cc(Br)c1Br` [PBDE 191] (APCI source condition: Dry, base ion: M+.) are 29 min and 187.91 Å².
The corresponding values for `Clc1ccc(Cl)c(-c2c(Cl)ccc(Cl)c2Cl)c1Cl` [PCB136] (APCI source condition: Dry, base ion: M+.) are 19.4 min and 155.08 Å².
`Clc1ccc(-c2ccccc2)cc1` [PCB 3] (APCI source condition: Dry, base ion: M+.) showed a GC retention time in data set [1] of 13.2 min. For the same compound, the collision cross section in data set [2] turned out to be 137.62 Å².
Turning to `Clc1ccccc1-c1ccccc1Cl` [PCB 4] (APCI source condition: Dry, base ion: M+.), the GC retention time in data set [1] came out at 13.6 min. This compound also showed a collision cross section in data set [2] of 137.64 Å².
The like results for `Clc1ccc(-c2ccccc2Cl)cc1` [PCB 7] (APCI source condition: Dry, base ion: M+.) were, in that order, 14.6 min and 137.98 Å².
The corresponding values for `Clc1ccc(Cl)c(-c2ccccc2Cl)c1` [PCB 18] (APCI source condition: Dry, base ion: M+.) are 15.4 min and 140.01 Å².
The like results for `Clc1cccc(-c2cccc(Cl)c2Cl)c1` [PCB 20] (APCI source condition: Dry, base ion: M+.) were, in that order, 16.6 min and 140.68 Å².
For `Clc1ccc(-c2ccc(Cl)cc2Cl)cc1` [PCB 28] (APCI source condition: Dry, base ion: M+.), in data set [1], the GC retention time came to 16.4 min. The same compound came in with a collision cross section in data set [2] of 142.54 Å².
The compound `Clc1cccc(-c2cccc(Cl)c2Cl)c1Cl` [PCB 40] (APCI source condition: Dry, base ion: M+.) showed a GC retention time in data set [1] of 17.9 min. The compound further gave a collision cross section in data set [2] of 144.96 Å².
The corresponding values for `Clc1ccc(Cl)c(-c2cc(Cl)ccc2Cl)c1` [PCB 52] (APCI source condition: Dry, base ion: M+.) are 17.1 min and 149.21 Å².
The like results for `Clc1ccc(Cl)c(-c2c(Cl)cccc2Cl)c1` [PCB 53] (APCI source condition: Dry, base ion: M+.) were, in that order, 16.6 min and 144.4 Å².
The corresponding values for `Clc1cc(-c2ccccc2)c(Cl)c(Cl)c1Cl` [PCB 61] (APCI source condition: Dry, base ion: M+.) are 18.3 min and 148.05 Å².
Consider `Clc1ccc(Cl)c(-c2cc(Cl)c(Cl)cc2Cl)c1` [PCB 101] (APCI source condition: Dry, base ion: M+.), for which the GC retention time in data set [1] was 18.8 min. The same compound yielded a collision cross section in data set [2] of 155.45 Å².
The corresponding values for `Clc1ccc(-c2c(Cl)ccc(Cl)c2Cl)cc1Cl` [PCB 110] (APCI source condition: Dry, base ion: M+.) are 19.4 min and 152.9 Å².
The like results for `Clc1ccc(-c2cc(Cl)c(Cl)cc2Cl)cc1Cl` [PCB 118] (APCI source condition: Dry, base ion: M+.) were, in that order, 19.9 min and 156.06 Å².
`Clc1ccc(-c2ccc(Cl)c(Cl)c2Cl)c(Cl)c1Cl` [PCB 128] (APCI source condition: Dry, base ion: M+.) had a GC retention time in data set [1] of 21.3 min. Moreover, the collision cross section in data set [2] was 158.12 Å².
The like results for `Clc1cc(Cl)c(-c2ccc(Cl)c(Cl)c2Cl)cc1Cl` [PCB 138] (APCI source condition: Dry, base ion: M+.) were, in that order, 20.8 min and 159.68 Å².
The corresponding values for `Clc1cc(Cl)c(-c2c(Cl)ccc(Cl)c2Cl)cc1Cl` [PCB 149] (APCI source condition: Dry, base ion: M+.) are 19.8 min and 158.29 Å².
The corresponding values for `Clc1cc(Cl)c(-c2cc(Cl)c(Cl)cc2Cl)cc1Cl` [PCB 153] (APCI source condition: Dry, base ion: M+.) are 20.3 min and 161.05 Å².
For the compound `Clc1ccc(-c2cc(Cl)c(Cl)c(Cl)c2Cl)c(Cl)c1Cl` [PCB 170] (APCI source condition: Dry, base ion: M+.), in data set [1], the GC retention time worked out at 22.5 min. Further, the collision cross section in data set [2] came to 165.18 Å².
The like results for `Clc1cc(Cl)c(-c2cc(Cl)c(Cl)c(Cl)c2Cl)cc1Cl` [PCB 180] (APCI source condition: Dry, base ion: M+.) were, in that order, 22 min and 166.55 Å².
The corresponding values for `Clc1cc(Cl)c(-c2c(Cl)c(Cl)cc(Cl)c2Cl)cc1Cl` [PCB 187] (APCI source condition: Dry, base ion: M+.) are 21.1 min and 165.54 Å².
The like results for `Clc1ccc(Cl)c(-c2c(Cl)c(Cl)c(Cl)c(Cl)c2Cl)c1Cl` [PCB 200] (APCI source condition: Dry, base ion: M+.) were, in that order, 22.2 min and 167.33 Å².
`Brc1cc(Br)c(Br)c(Br)c1Br` [Pentabromobenzene] (APCI source condition: Dry, base ion: M+.): the GC retention time in data set [1] turned out to be 18.5 min. The collision cross section in data set [2] came out at 135.24 Å².
The corresponding values for `Cc1c(Br)c(Br)c(Br)c(Br)c1Br` [Pentabromotoluene] (APCI source condition: Dry, base ion: M+.) are 20.1 min and 140.29 Å².
The like results for `Clc1cc(Cl)c(Cl)c(Cl)c1Cl` [Pentachlorobenzene] (APCI source condition: Dry, base ion: M+.) were, in that order, 12.4 min and 135.24 Å².
The like results for `c1cc2cccc3c4cccc5cccc(c(c1)c23)c54` [Perylene] (APCI source condition: Dry, base ion: M+.) were, in that order, 25 min and 143.02 Å².
`c1ccc2c(c1)ccc1ccccc12` [Phenanthrene] (APCI source condition: Dry, base ion: M+.) registered a GC retention time in data set [1] of 15.6 min. Further, the collision cross section in data set [2] is reported as 137.89 Å².
In data set [1], `c1cc2ccc3cccc4ccc(c1)c2c34` [Pyrene] (APCI source condition: Dry, base ion: M+.) came in with a GC retention time of 18.9 min. Besides, the collision cross section in data set [2] is 137.65 Å².
